Test results reported in patent publication US20120245161A1 (SANOFI, priority 2009, published 2012).
Where a name gives a salt, the structure may show the parent alone. Read-outs that look alike come from different tables or passages of the source.

Key:
[1] = biological target: T1, recombinant human beta tryptase (Homo sapiens, UniProt P20231); experiment: beta-Tryptase inhibition, chromogenic enzyme assay (substrate S2366, read at 405 nm); type: biochemical
T1 construct: made in house; host or cells: yeast cells
T1 sequence (P20231 31-275): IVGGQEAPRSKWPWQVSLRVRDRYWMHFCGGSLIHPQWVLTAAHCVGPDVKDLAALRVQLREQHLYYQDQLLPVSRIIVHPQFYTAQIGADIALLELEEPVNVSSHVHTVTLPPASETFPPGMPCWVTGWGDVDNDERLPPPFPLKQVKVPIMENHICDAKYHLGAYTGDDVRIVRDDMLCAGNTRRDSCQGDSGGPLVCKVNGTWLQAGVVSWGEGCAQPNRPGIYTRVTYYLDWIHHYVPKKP
Summary of the method: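 Recombinant human beta tryptase (yeast-expressed; native lung enzyme also used), 50 ng/mL final, with 0.5 mM (2×Km) chromogenic substrate S2366; 30 min in the dark, room temperature, read at 405 nm. Compounds at 0.01-10 μM in duplicate for IC50; Ki=IC50/(1+[S]/Km).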

β-tryptase = details: inhaled, cited from earlier work
[2] = Tryptase Ki (nM), Ki calculated from IC50: Ki=IC50/(1+[Substrate]/Km), 0.5 mM substrate, room temperature
[3] = Ki calculated from IC50: Ki=IC50/(1+[Substrate]/Km), 0.5 mM substrate, room temperature, read-out: Tryptase Ki

Structure (SMILES)	Ki [1, 2] [nM]	also measured
COCCn1cc(C(=O)N2CCC(c3cc(CN)ccc3F)CC2)c2c(C(=O)N3CCOCC3)cccc21.Cl [Example 59, [3-[4-(5-Aminomethyl-2-fluoro-phenyl)-piperidine-1-carbonyl]-1-(2-methoxy-ethyl)-1H-indol-4-yl]-morpholin-4-yl-methanone hydrochloride]	32	melting point: 142 to 147 °C
NC(=O)[C@@H]1CCCN1C(=O)[C@H](CCCN=C(N)N)NC(=O)c1ccc2ccccc2c1O [APC-366]		Clinical proof-of-concept for asthma (β-tryptase; bronchial allergen challenge): Clinical proof-of-concept; development outcome / tolerability (β-tryptase): terminated due to bronchial irritation
COCCn1cc(C(=O)N2CCC(c3cc(CN)ccc3F)CC2)c2c(-c3ccccn3)cccc21 [Example 74, [4-(5-Aminomethyl-2-fluoro-phenyl)-piperidin-1-yl]-[1-(2-methoxy-ethyl)-4-pyridin-2-yl-1H-indol-3-yl]-methanone dihydrochloride]		Ki [1, 3]: 26 nM
COCCn1cc(C(=O)N2CCC(c3cc(CN)ccc3F)CC2)c2c(-c3cccnc3)cccc21 [Example 73, [4-(5-Aminomethyl-2-fluoro-phenyl)-piperidin-1-yl]-[1-(2-methoxy-ethyl)-4-pyridin-3-yl-1H-indol-3-yl]-methanone dihydrochloride]		Ki [1, 3]: 7 nM
NCc1ccc(F)c(C2CCN(C(=O)c3cn(CCOCCO)c4c(OC(F)(F)F)cccc34)CC2)c1 [Example 27, [4-(5-Aminomethyl-2-fluoro-phenyl)-piperidin-1-yl]-{1-[2-(2-hydroxy-ethoxy)-ethyl]-7-trifluoromethoxy-1H-indol-3-yl}-methanone hydrochloride]	164	
NCc1ccc(F)c(C2CCN(C(=O)c3cn(CCc4ccncc4)c4ccccc34)CC2)c1 [Example 35, [4-(5-Aminomethyl-2-fluoro-phenyl)-piperidin-1-yl]-[1-(2-pyridin-4-yl-ethyl)-1H-indol-3-yl]-methanone dihydrochloride]	8.6	
COCCn1cc(C(=O)N2CCC(c3cc(CN)ccc3F)CC2)c2c(NC(=O)N3CCOCC3)cccc21 [Example 99, Morpholine-4-carboxylic acid [3-[4-(5-aminomethyl-2-fluoro-phenyl)-piperidine-1-carbonyl]-1-(2-methoxy-ethyl)-1H-indol-4-yl]-amide hydrochloride]	25	
Cc1cccc2c(C(=O)N3CCC(c4cc(CN)ccc4F)CC3)cn(CCCc3cccnc3)c12 [Example 10, [4-(5-Aminomethyl-2-fluoro-phenyl)-piperidin-1-yl]-[7-methyl-1-(3-pyridin-3-yl-propyl)-1H-indol-3-yl]-methanone dihydrochloride]	175	
COCCn1cc(C(=O)N2CCC(c3cc(CN)ccc3F)CC2)c2c(C(=O)N(C)C)cccc21 [Example 91, 3-[4-(5-Aminomethyl-2-fluoro-phenyl)-piperidine-1-carbonyl]-1-(2-methoxy-ethyl)-1H-indol-4-carboxylic acid dimethylamide hydrochloride]	20	Ki ([1]; Tryptase Ki (nM), additional value in parentheses tagged "719" (code not explained)): 54 nM; Ki ([1]; Tryptase Ki (nM), additional value in parentheses tagged "8923" (code not explained)): 28 nM
CCN(CC)CCn1cc(C(=O)N2CCC(c3cc(CN)ccc3F)CC2)c2ccccc21 [Example 37, [4-(5-Aminomethyl-2-fluoro-phenyl)-piperidin-1-yl]-[1-(2-diethylamino-ethyl)-1H-indol-3-yl]-methanone dihydrochloride]		Ki [1, 3]: 87 nM
COCCn1cc(C(=O)N2CCC(c3cccc(CN)n3)CC2)c2cccc(C)c21 [Example 113, (6-Aminomethyl-3′,4′,5′,6′-tetrahydro-2′H-[2,4]bipyridinyl-1′-yl)-[1-(2-methoxy-ethyl)-7-methyl-1H-indol-3-yl]-methanone dihydrochloride]		Ki [1, 3]: 656 nM
Cc1cccc2c(C(=O)N3CCC(c4cccc(CN)c4)CC3)cn(CCN3CCOCC3)c12 [Example 2, [4-(3-Aminomethyl-phenyl)-piperidin-1-yl]-[7-methyl-1-(2-morpholin-4-yl-ethyl)-1H-indol-3-yl]-methanone hydrochloride]	234	
NCc1ccc(F)c(C2CCN(C(=O)c3cn(CCOC(F)(F)F)c4cccc(F)c34)CC2)c1 [Example 90, [4-(5-Aminomethyl-2-fluoro-phenyl)-piperidin-1-yl]-[4-fluoro-(2-trifluoromethoxy-ethyl)-1H-indol-3-yl]-methanone hydrochloride]	396	
COCCn1cc(C(=O)N2CCC(c3cc(CN)ccc3F)CC2)c2c(NS(=O)(=O)N(C)C)cccc21 [Example 104, Dimethylamino-1-sulfonic acid [3-[4-(5-aminomethyl-2-fluoro-phenyl)-piperidine-1-carbonyl]-1-(2-methoxy-ethyl)-1H-indol-4-yl]-amide]	204	
COCCn1cc(C(=O)N2CCC(c3cc(CN)ccc3F)CC2)c2cccc(F)c21 [Example 39, [4-(5-Aminomethyl-2-fluoro-phenyl)-piperidin-1-yl]-[7-fluoro-1-(2-methoxy-ethyl)-1H-indol-3-yl]-methanone hydrochloride]	10	
COCCn1cc(C(=O)N2CCC(c3cc(CN)ccc3F)CC2)c2c(C(=O)N3CCCC3)cccc21 [Example 108, [4-(5-Aminomethyl-2-fluoro-phenyl)-piperidin-1-yl]-[1-(2-methoxy-ethyl)-4-(pyrrolidine-1-carbonyl)-1H-indol-3-yl]-methanone hydrochloride]	15	
